From patent US4937266A, “Inhibitory agent of hepatic fibrosis” (priority 1988, dated 1990)

Legend:
viral hepatitis = conditions: reported in JP-A-No. 58-35118; cited from earlier work
prolyl hydroxylase = conditions: rabbit, in vivo
From the text: Male Japanese white rabbits weighing 2.5 kg were used. A cholesterol group consisting of 8 rabbits were fed on RC-4 diet (sold by Oriental Kobo Co., Ltd.) containing 0.5% cholesterol for 10 weeks. […] A control group consisting of 3 rabbits were fed on RC-4 diet for the same period.
The rabbits were sacrificed by exsangunation from abdominal aorta under anesthesia with pentobarbital and the liver and kidney were removed. A portion of the each organ was homogenized with 9 times the volume of a 0.01M Tris-hydrochloric acid buffer solution (pH 7.4) containing 10^-5 M EDTA and 10^-4 M DTT in Polytron homogenizer. The prolyl hydroxylase activity was expressed as radioactivity of ^3 H2 O released per milligram of protein when ^3 H-proline labeled unhydroxylated collagen was incubated as a substrate for 30 minutes. […] Incubation was carried out at 30° C. for 30 minutes. 100 μl of a 55% trichloroacetic acid aqueous solution was added thereto to stop the reaction. The ^3 H2 O of the reaction mixture was separated by vacuum distillation of the whole reaction mixture. An aliquot (800 μl) of the distillate was mixed with 10 ml of Aquasol and counted for the radioactivity in a liquid scintillation counter. The protein amount was measured by BIO.RAD Protein Assay Kit using bovine serum albumin (BSA) as a standard.

medicinal fatty liver = conditions: reported in JP-B-No. 60-19891; cited from earlier work

CC(C)(CO)[C@@H](O)C(=O)NCCC(=O)NCCSSCCNC(=O)CCNC(=O)[C@H](O)C(C)(C)CO [Pantethine, D-bis-(N-pantothenyl-β-aminoethyl)-disulfide]
effect on viral hepatitis (in words) (viral hepatitis): effective
Prolyl Hydroxylase Activity, Liver (prolyl hydroxylase): 729.3 ± 45.6 cpm/mg-protein
prolyl hydroxylase activity in the liver (in words) (prolyl hydroxylase): decreased nearly to the level of the normal group
effect on medicinal fatty liver (in words) (medicinal fatty liver): effective
